What follows are molecules tested against Gag-Pol polyprotein (Human immunodeficiency virus type 1 group M subtype B (isolate HXB2), UniProt P04585) (assay: HIV-1 RT Activity Assay). Settings: pH 7.8; 37 °C.
Description: HIV-1 Reverse Transcriptase Activity was measured using the colorimetric photometric immunoassay kit provided by Roche. Estimation of RT activity is achieved by quantification of the DNA synthesized by RT in a known period of time. Incubation was performed for 2 h at 37°C. PolyA:oligodT RNA template:primer hybrid at a concentration of 2.2 μg/ml was incubated with 20 nMof purified recombinant HIV-1 reverse transcriptase in a 50 μL incubation mixture containing 50 mM Tris-HCl pH 7.8, 160 mM KCl, 11 mM MgCl2, 5.3 mM DTT, 0.5 mM EDTA, 0.3% Triton-X 100 and 10 μM dTTP (unless otherwise mentioned) in the presence of digoxigeninconjugated dUTP (dUTP-DIG) and biotin-conjugateddUTP (dUTP-biotin). In a following step, the synthesised biotin-DIG-labelled DNA was bound to the surface of streptavidin-coated ELISA-plate wells. After washing out the unbound material, an antibody to digoxigenin, conjugated to peroxidase (anti-DIG-POD), was added and bound to the digoxigenin-labelled nucleotides. After a washing step and addition of the appropriate substrate, peroxidase catalyzed the transformation of the substrate, ABTS, to a yellow coloured reaction product. 15 min after ABTS addition, the coloured product was measured using a microtitre plate (ELISA) reader. For the estimation of inhibitory action of the compounds, reverse transcriptase was incubated in the presence of the potential inhibitor for 45 min at room temperature before addition of its substrates (pre-incubation).
Work on `O=C1CSC(c2c(Cl)cccc2Cl)N1c1nc2c(Cl)cccc2s1` (stereo not given) [3-(4-Chlorobenzo[d]thiazol-2-yl)-2-(2,6-dichlorophenyl)thiazolidin-4-one (6)] yielded an IC50 of over 40 µM. For `O=C1CSC(c2c(F)cccc2F)N1c1nc2c(Cl)cccc2s1` (stereo not given) [3-(4-Chlorobenzo[d]thiazol-2-yl)-2-(2,6-difluorophenyl)thiazolidin-4-one (8)], the IC50 was over 40 µM. `O=C1CSC(c2c(F)cccc2Cl)N1c1nc2c(Cl)cccc2s1` (stereo not given) [3-(4-Chlorobenzo[d]thiazol-2-yl)-2-(2-chloro-6-fluorophenyl)thiazolidin-4-one (7)] gave an IC50 of 0.04 µM. `COc1cccc2sc(N3C(=O)CSC3c3c(Cl)cccc3Cl)nc12` (stereo not given) [3-(4-Methoxybenzo[d]thiazol-2-yl)-2-(2,6-dichlorophenyl)thiazolidin-4-one (15)] gave an IC50 of 3 µM. In the case of `COc1cccc2sc(N3C(=O)CSC3c3c(F)cccc3Cl)nc12` (stereo not given) [3-(4-Methoxybenzo[d]thiazol-2-yl)-2-(2-chloro-6-fluorophenyl)thiazolidin-4-one (16)], the IC50 is reported as over 40 µM. `O=C1CSC(c2c(Cl)cccc2Cl)N1c1nc2ccc(Cl)cc2s1` (stereo not given) [3-(6-Chlorobenzo[d]thiazol-2-yl)-2-(2,6-dichlorophenyl)thiazolidin-4-one (3)] gave an IC50 of over 40 µM. With `O=C1CSC(c2c(F)cccc2Cl)N1c1nc2ccc(Cl)cc2s1` (stereo not given) [3-(6-Chlorobenzo[d]thiazol-2-yl)-2-(2-chloro-6-fluorophenyl)thiazolidin-4-one (4)] the IC50 was over 40 µM. With `CCOc1ccc2nc(N3C(=O)CSC3c3c(F)cccc3F)sc2c1` (stereo not given) [3-(6-Ethoxybenzo[d]thiazol-2-yl)-2-(2,6-difluorophenyl)thiazolidin-4-one (19)] the IC50 was over 40 µM. Molecule `CCOc1ccc2nc(N3C(=O)CSC3c3c(F)cccc3Cl)sc2c1` (stereo not given) [3-(6-Ethoxybenzo[d]thiazol-2-yl)-2-(2-chloro-6-fluorophenyl)thiazolidin-4-one (18)] has an IC50 of 3.4 µM. Molecule `O=C1CSC(c2c(Cl)cccc2Cl)N1c1nc2ccc(F)cc2s1` (stereo not given) [3-(6-Fluorobenzo[d]thiazol-2-yl)-2-(2,6-dichlorophenyl)thiazolidin-4-one (9)] has an IC50 of 0.25 µM. With `COc1ccc2nc(N3C(=O)CSC3c3c(Cl)cccc3Cl)sc2c1` (stereo not given) [3-(6-Methoxybenzo[d]thiazol-2-yl)-2-(2,6-dichlorophenyl)thiazolidin-4-one (12)] the IC50 was over 40 µM. With `COc1ccc2nc(N3C(=O)CSC3c3c(F)cccc3F)sc2c1` (stereo not given) [3-(6-Methoxybenzo[d]thiazol-2-yl)-2-(2,6-difluorophenyl)thiazolidin-4-one (14)] the IC50 was over 40 µM. For `COc1ccc2nc(N3C(=O)CSC3c3c(F)cccc3Cl)sc2c1` (stereo not given) [3-(6-Methoxybenzo[d]thiazol-2-yl)-2-(2-chloro-6-fluorophenyl)thiazolidin-4-one (13)], the IC50 was over 40 µM. For `O=C1CSC(c2c(F)cccc2F)N1c1nc2ccccc2s1` (stereo not given) [3-(Benzo[d]thiazol-2-yl)-2-(2,6-difluorophenyl)thiazolidin-4-one (1)], the IC50 was over 40 µM. Work on `O=C1CSC(c2c(F)cccc2Cl)N1c1nc2ccccc2s1` (stereo not given) [3-(Benzo[d]thiazol-2-yl)-2-(2-chloro-6-fluorophenyl)thiazolidin-4-one (2)] yielded an IC50 of over 40 µM.

Reference: BindingDB's records for doi:10.3109/14756366.2011.636362 (Aristotle University of Thessaloniki, 2013)
